The experiment concerns CEM cells HIV-1 protection, formazan growth assay. As to the kind of experiment: NCI AIDS Antiviral Assay. The note with it: for IC50: measured here: growth of uninfected CEM cells. The procedure, abridged:
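Steps: treat uninfected and HIV-1-infected human CEM cells at five drug levels; quantify growth by soluble formazan; retest any compound reaching 50% protection; classify actives from the retest.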

Where “and” joins values, the source holds several entries; their conditions need not be identical. Equal entries are not always repeated. Calls of active or inactive are those of the source.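 Rule for the calls: active = compounds giving half or more protection of infected cells from virus-caused growth loss, again on retest; inactive = the rest.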

74 compounds from PubChem BioAssay AID179 (DTP/NCI, 2004) can be followed below.

For `Cc1ccc(/C=C2\NC(=S)N(CN3CCCCC3)C2=O)cc1`, the EC50 (usually the concentration giving half of the maximal effect) is greater than 200 µM and the IC50 (as a rule, the concentration that inhibits the measured activity by half) was determined as 29.5 µM. Take `COC(=O)C1(C(=O)OC)C/C(C)=C(/C)SCCCS1`: the EC50 is greater than 200 µM and the IC50 was greater than 200 µM. Take `CCCCCCNc1n[nH]c(=O)c2c1nnn2Cc1ccccc1`: the EC50 was greater than 200 µM and the IC50 was greater than 200 µM. `Cn1c2c(c3ccccc31)CC(=O)N1CCCC(C1)CC21OCCO1` (stereo not given): the EC50 was greater than 200 µM and the half-inhibitory concentration (IC50) was greater than 200 µM. As for `CC(C)(C)NC(=O)c1ccccc1[Se][Se]c1ccccc1C(=O)NC(C)(C)C`, the EC50 is 10.2 µM and the IC50 was 13.2 µM. In the same order, the values of `CCOC(=O)c1c(N)sc2c1C(C(=O)OCC)CCC2` (stereo not given) are greater than 200 µM and 112 µM. Consider `CCC1(c2c(F)c(F)c(N)c(F)c2F)CCC(=O)NC1=O` (stereo not given), for which the result was inactive. Turning to `Cc1ccc(C(=O)O)c(/C=C2\Cc3cc(C)cc(C)c3C2=O)c1`, the outcome was inactive.

Turning to `O=C1CCCC1C(O)(C(F)(F)Cl)C(F)(F)Cl` (stereo not given), the EC50 was greater than 200 µM and the IC50 is greater than 200 µM. As to `Cc1cn([C@@H]2C[C@H](CO)[C@@H]2O)c(=O)[nH]c1=O`, the EC50 was greater than 200 µM and the IC50 is greater than 200 µM. `COC(=O)[C@@H]1[C@H]2[C@H](OC(=O)c3ccccc3)CCN2C(=O)[C@H]1O`: the EC50 is greater than 200 µM and the IC50 turned out to be 75.9 µM. In the same order, the values of `Cn1cc(NC(=O)Nc2cc(C(=O)Nc3cc(C(=O)Nc4cc(C(=O)Nc5cc(P(=O)(O)O)c6cccc(P(=O)(O)O)c6c5)n(C)c4)n(C)c3)n(C)c2)cc1C(=O)Nc1cc(C(=O)Nc2cc(C(=O)Nc3cc(P(=O)(O)O)c4cccc(P(=O)(O)O)c4c3)n(C)c2)n(C)c1` are 0.288 µM and 75.9 µM. In the same order, the values of `CC(C)(C)NC(=O)NC12CC3CC(CC(F)(C3)C1)C2` are greater than 26.9 µM and greater than 26.9 µM. Regarding `ClC1=NSSC1(Cl)Cl`, the EC50 is greater than 200 µM and the IC50 amounted to 27.5 µM. As for `CCCCCCCCCCOCC(COCCOCC(COCCCCCCCCCC)OS(=O)(=O)O)OS(=O)(=O)O` (stereo not given), the EC50 is greater than 186 µM and the IC50 was 42.7 µM.

In the case of `O=C1C=C(c2c(O)ccc3ccccc23)c2ccccc2C1=O`, the outcome was inactive. Take `Cc1c(/C=N/NC(=S)Nc2ccc([N+](=O)[O-])cc2)c(=O)n(-c2ccccc2)n1C`: the EC50 was greater than 200 µM and the IC50 was 166 µM.

On to `COc1ccc(C2=Nc3ccccc3SC(c3ccc(OC)cc3)C2)cc1` (stereo not given), for which the EC50 was greater than 47.9 µM and the IC50 is 25.7 µM. On the same counts, the results for `CC(=O)OCC(OC(C)=O)C(OC(C)=O)C(OC(C)=O)C(/C=N\Nc1nc2ccccc2c(=O)[nH]1)=N/Nc1nc2ccccc2c(=O)[nH]1` (stereo not given) are greater than 100 µM and greater than 100 µM. On to `O=C1N(C2CCCCC2)C(=O)N1C1CCCCC1`, for which the EC50 was 8.32 µM and the IC50 stood at 17.8 µM. On the same counts, the results for `O=c1[nH]nc(-c2ccccc2)n1O` are greater than 200 µM and greater than 200 µM. Turning to `COc1ccccc1C(O)(c1ccccc1)C(O)(c1ccccc1)c1ccccc1OC` (stereo not given), the EC50 is greater than 15.8 µM and the 50% inhibitory concentration (IC50) was greater than 15.8 µM. Take `Cc1n[nH]c(=O)n1-n1cccc1`: the EC50 is greater than 200 µM and the half-inhibitory concentration (IC50) was greater than 200 µM. For the compound `CCN(CC)c1ccc2cc(-n3nnc4ccccc43)c(=O)oc2c1`, the EC50 is greater than 8.13 µM and the concentration for half-maximal inhibition (IC50) was greater than 8.13 µM. Consider `NC1=NN(c2ccccc2)C(=O)C1/C(=N\NC(=O)c1cc2ccccc2cc1O)C(=O)Nc1ccc(Cl)c(Cl)c1` (stereo not given), for which the EC50 is greater than 45.7 µM and the IC50 was greater than 45.7 µM. Consider `O=c1[nH]c(O)c(/C=N/C(=S)N=Nc2c(O)[nH]c3ccccc23)c(=O)[nH]1`, for which the EC50 is greater than 200 µM and the IC50 was greater than 200 µM. Turning to `O=Nc1ccc(N(CCO)CCO)cc1`, the EC50 is greater than 200 µM and the IC50 is 2.95 µM.

Consider `C[S+](C)c1ccc(Cl)cc1`, for which the EC50 was greater than 871 µM and the concentration for half-maximal inhibition (IC50) turned out to be 69.2 µM. On the same counts, the results for `CN1CC(Br)(Br)C(=O)N(C)C1=O` are greater than 200 µM and 3.24 µM. `COc1ccc2nc3cc(Cl)ccc3c(Sc3ccc(N)cc3)c2c1`: the EC50 is greater than 14.1 µM and the half-inhibitory concentration (IC50) stood at 3.31 µM. Regarding `COc1ccc(/C=C/C(=O)CCN2CCN(CCC(=O)/C=C/c3ccc(OC)cc3)CC2)cc1`, the EC50 was greater than 151 µM and the IC50 was determined as 1.58 µM. On the same counts, the results for `CC(C1=C(O)c2ccccc2C(=O)C1=O)C1=C(O)c2ccccc2C(=O)C1=O` are greater than 200 µM and 50.1 µM.

With `COC(=O)c1ccccc1/C=C1\Cc2ccc3c(c2C1=O)CCC3`, the EC50 was greater than 200 µM and the IC50 was greater than 200 µM.

`Cc1ccc2c(c1)Nc1ccccc1C(=O)N2`: the EC50 was greater than 200 µM and the IC50 was greater than 200 µM. As to `Cn1cc(C(=O)c2ccccc2)cc(C(=O)c2ccccc2)c1=O`, the result was inactive. As to `COc1ccc2c(c1)C(=O)CC(c1ccccc1OC)O2` (stereo not given), the EC50 is greater than 200 µM and the IC50 came out at 34.7 µM. Take `N#CC1=C(C#N)/C(=C(\C#N)C(C#N)C#N)N=C1N`: the EC50 is greater than 100 µM and the half-maximal inhibitory concentration (IC50) amounted to 37.2 µM. Regarding `Nc1cccc(S(=O)(=O)NCC(=O)O)c1`, the outcome was inactive. For `Cc1cc(C)nc(NC(N)=NCCc2ccccc2)n1`, the EC50 was greater than 200 µM and the IC50 stood at 3.31 µM. Consider `O=C(O)c1cc(N=Nc2cc(S(=O)(=O)O)c3cccnc3c2O)ccc1/C=C/c1ccc(N=Nc2cc(S(=O)(=O)O)c3cccnc3c2O)cc1C(=O)O`, for which the EC50 was 4.27 µM and 21.4 µM; the IC50 was 61.7 µM and > 200 µM. As to `COc1ccc(-c2c(C3=NCCCN3)nnn2-c2ccc([N+](=O)[O-])cc2)cc1`, the EC50 was greater than 13.8 µM and the IC50 is greater than 13.8 µM. With `Cc1c(Cc2ccccc2)n(C(C)OCCN2C(=O)C=CC2=O)c(=O)[nH]c1=O` (stereo not given), the EC50 was greater than 200 µM and the IC50 turned out to be 9.77 µM.

Take `COC(=O)/C(=N/NC(C)(C)C)C(C(=O)C=C(C)C)C(=O)C(=O)Nc1ccc(Cl)cc1C` (stereo not given): the EC50 is greater than 398 µM and the half-maximal inhibitory concentration (IC50) is 269 µM.

Regarding `COC(=O)CC(C(C(C)=O)C(=O)OCc1ccccc1)N1C(=O)OC(c2ccccc2)C1c1ccccc1` (stereo not given), the EC50 was greater than 83.2 µM and the concentration for half-maximal inhibition (IC50) was greater than 83.2 µM.

`CC(C)(C)C=C=C(C(C)(C)C)P(=O)(O)O`: the EC50 was greater than 200 µM and the IC50 is greater than 200 µM. As for `CCOC(=O)CCCSCCCC(=O)CCCSCCCC(=O)OCC`, the EC50 was greater than 447 µM and the IC50 was determined as 309 µM.

In the case of `CO/N=C(/C(=O)Nc1c[n+](CC(=O)[O-])cs1)c1csc(N)n1`, the EC50 was greater than 145 µM and the IC50 is greater than 145 µM. Turning to `CCOC(=O)N1C/C(=C\c2ccccc2)C(=O)/C(=C/c2ccccc2)C1`, the EC50 is greater than 100 µM and the IC50 turned out to be 1.82 µM.

On to `O=C(c1nsc(Cl)c1Cl)N1CCCCC1`, for which the EC50 was greater than 200 µM and the IC50 was greater than 200 µM. On to `CC(=O)N1N(c2ccc([N+](=O)[O-])cc2)C(=O)C1(C)C`, for which the EC50 was greater than 200 µM and the IC50 is greater than 200 µM. Take `CN(C)c1ccc(/C=C/C(=O)C(C)(C)C)cc1Br`: the EC50 is greater than 32.4 µM and the IC50 was found to be 21.4 µM. Consider `CCOC(=O)CNC(SC)=C(C#N)C#N`, for which the outcome was inactive.

In the case of `CCCCCCCCCCCCCC(=O)NCC(OCC)OCC`, the outcome was inactive. For the compound `CC(C)COC(=O)c1ccc(N)cc1`, the EC50 is greater than 200 µM and the IC50 was greater than 200 µM. `[N-]=[N+]=Nc1c(-c2ccccc2)c(=O)n(-c2ccccc2)c2ccccc12`: the outcome was inactive. With `O=C(CSSCC(=O)c1ccccc1)c1ccccc1`, the EC50 is greater than 89.1 µM and the IC50 was found to be 11 µM.

Consider `C=C1C(OC(=O)C(O)C(c2ccccc2)N(C)C)C[C@H](OC(C)=O)[C@]2(C)C1C[C@@H]1CC(OC(C)=O)C(C)=C([C@@H](OC(C)=O)C2OC(C)=O)C1(C)C` (stereo not given in full), for which the result was inactive. `COc1ccc(Nc2ccc([N+](=O)[O-])c3nonc23)cc1`: the EC50 was greater than 77.6 µM and the IC50 is greater than 77.6 µM. In the case of `COC1(OC)c2no[n+]([O-])c2CCC1O` (stereo not given), the EC50 was greater than 200 µM and the IC50 was greater than 200 µM.

Consider `O=C(O)/C=C\C(=O)NNC(=O)/C=C\C(=O)O`, for which the EC50 is greater than 1100 µM and the IC50 was greater than 1100 µM. As to `C/C(CC(=O)Nc1cccc(Cl)c1C)=N\N=C(N)N`, the EC50 was greater than 91.2 µM and the IC50 was greater than 91.2 µM.

Take `Oc1ccc2c(c1)-c1c(c3cc(O)ccc3n1CCN1CCOCC1)CC2`: the result was inactive. As for `NC(CSS(=O)(=O)O)=NCCCCC1CCCCC1`, the EC50 was greater than 200 µM and the IC50 came to 30.9 µM. `CC(C)=CCC/C(C)=C/Cc1cc(O)c(Br)cc1O`: the EC50 was greater than 145 µM and the IC50 turned out to be 24 µM. With `CCN(CC)C(=S)S`, the EC50 was greater than 1450 µM and the IC50 was determined as 39.8 µM.

Consider `CC(Oc1ccc2c(=O)cc(-c3ccccc3)oc2c1)C(=O)O` (stereo not given), for which the outcome was inactive. For the compound `Cn1c(-c2ccc(/C=N\N3CCN(/N=C/c4ccc(-c5c[n+]6ccccc6n5C)cc4)CC3)cc2)c[n+]2ccccc12`, the EC50 was greater than 3.02 µM and the 50% inhibitory concentration (IC50) was greater than 3.02 µM. As to `C/C(N=NS(=O)(=O)c1c(C)cc(C)cc1C)=C1\C=CC=CN1O`, the outcome was inactive. As for `COc1cc(/C=C2\CN(C)CC3=C2NC(=S)NC3c2cc(OC)c(OC)c(OC)c2)cc(OC)c1OC` (stereo not given), the EC50 was greater than 200 µM and the IC50 turned out to be 38.9 µM. For the compound `CC(C)[Si](OCC/C=C/C1CCC(=O)C1C(O)C1CCCCC1)(C(C)C)C(C)C` (stereo not given), the result was inactive.

In the case of `CCOC(=O)C1(C/C=C(/C)Cl)CCCC1=O` (stereo not given), the EC50 was greater than 204 µM and the IC50 is greater than 204 µM.

For the compound `CCCCCC=C(c1cc(Cl)c(OC)c(C(=O)OCC)c1)c1cc(Cl)c(OC)c(C(=O)OCC)c1`, the EC50 was greater than 10 µM and the IC50 is greater than 10 µM. `O=C1NC(N2CCOCC2)=N/C1=C\c1ccc(O)cc1`: the EC50 was greater than 200 µM and the IC50 amounted to 105 µM. On to `O=C(/C=C/c1ccccc1)CCC1C(=O)NC(=O)NC1=O`, for which the EC50 was greater than 66.1 µM and the IC50 was greater than 66.1 µM.
